Test results: patent publication US12312359B2 (Vitae Pharmaceuticals, LLC, priority 2016, dated 2025)
pEC50, pIC50: −log10 of the molar value.

Legend:
[1] = molecular target: T1, biotinylated wild-type menin and MLL-AF9 fusion protein (menin/MLL binding) (Homo sapiens, UniProt O00255); assay: Assay 1: menin/MLL binding AlphaLISA assay, wild-type menin; details: Table 30; column head does not say wild-type or mutated menin
T1 construct: made in house; host or cells: menin: E. coli; MLL-AF9-FLAG: HEK293 cells, used as cleared lysate
T1 sequence (O00255 1-610): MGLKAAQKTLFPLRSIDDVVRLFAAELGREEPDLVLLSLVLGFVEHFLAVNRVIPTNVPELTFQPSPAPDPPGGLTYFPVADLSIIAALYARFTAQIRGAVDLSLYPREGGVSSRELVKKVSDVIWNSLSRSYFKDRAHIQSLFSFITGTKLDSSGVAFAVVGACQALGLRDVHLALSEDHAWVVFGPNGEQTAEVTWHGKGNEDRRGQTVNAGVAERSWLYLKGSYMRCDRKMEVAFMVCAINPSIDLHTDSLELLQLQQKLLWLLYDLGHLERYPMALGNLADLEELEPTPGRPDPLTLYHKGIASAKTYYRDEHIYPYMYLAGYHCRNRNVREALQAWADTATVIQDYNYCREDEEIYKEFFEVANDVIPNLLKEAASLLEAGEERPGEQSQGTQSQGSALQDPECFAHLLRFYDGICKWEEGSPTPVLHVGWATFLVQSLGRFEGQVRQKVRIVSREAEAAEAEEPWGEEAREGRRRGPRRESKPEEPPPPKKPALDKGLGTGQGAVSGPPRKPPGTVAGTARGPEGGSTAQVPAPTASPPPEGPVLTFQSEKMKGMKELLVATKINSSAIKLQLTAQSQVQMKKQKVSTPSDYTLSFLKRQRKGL
Description: Potencies of inhibitor compounds against menin/MLL binding were assessed by AlphaLISA assay using biotinylated (1) wild-type menin or (2) mutated menin (described in Huang et al, 2012, Nature, 482, 542-546) and MLL-AF9 fusion protein bearing a FLAG epitope at its C-terminus. Menin proteins were expressed in E. coli and covalently modified with biotin using EZ-Link™ Sulfo-NHS-Biotin (ThermoFisher Cat.No. 21217) according to manufacturer's protocol. MLL1-1,396 fused to AF91-92 and the C-terminal FLAG peptide was expressed in HEK293 cells and used as a lysate cleared at 21,000×g for 10 min.
Compounds (2 μL of solutions in DMSO) were dispensed in white 96-well half-area plates (Corning Cat.No. 3693) and incubated for 30 min at RT with 5 nM biotinylated menin and appropriate amount of MLL-AF9-FLAG lysate in 40 μL of 50 mM Tris-HCl buffer pH 7.4 containing 5% (v/v) DMSO, 50 mM NaCl, 0.01% (w/v) bovine serum albumin (BSA) and 1 mM DTT. To this incubation mixture, 40 μL of AlphaLISA anti-FLAG acceptor (PerkinElmer Cat.No. AL112C) and streptavidin donor (PerkinElmer Cat.No. 6760002) beads (10 μg/mL each) was added and incubation continued at RT for 60 min. Alpha (amplified luminescent proximity homogeneous assay) signal was measured on an Envision multi-label plate reader at the end of the incubation. All steps were conducted under dim fluorescent light.
These percent inhibition values were regressed against compound concentrations in the assay using four parameter logit non-linear curve fitting (XLFit, IDBS). The IC50 values were derived from the curve fitting as inflection points on the dose-response curves and are set out in Table 30 below.

[2] = tested on: human acute monocytic leukemia cell line MV-4-11; assay: Assay 2: cell proliferation assay (ATP quantitation, CellTiter-Glo), MV-4-11; assay type: cell-based; details: MV-4-11 cells
Description: Potencies of inhibitor compounds against cell proliferation was assessed against the human acute monocytic leukemia cell line MV-4-11 (ATCC® CRL-9591™) based on ATP quantitation. MV-4-11 cells or toxicity control HL-60 cells (ATCC® CCL-240™) were incubated in 96-well tissue culture plates (1.67×10^4 cells in 200 μL culture media containing 10% FBS per well) with or without test compound for 72 h at 37° C., 5% CO2. After incubation, each well was mixed by pipetting and 95 μL from each well was transferred to a well in 96-well black OptiPlate® plates (PerkinElmer). An equal volume of CellTiter-Glo® Luminescent Cell Viability Assay reagent (Promega) was added to each well, followed by mixing for 5 min on an orbital plate shaker. Luminescence was measured on a Wallac EnVision 2104 Multilabel Reader (PerkinElmer) to quantitate ATP.

SMILES | pIC50 [1] | pEC50 ([2]; Homo sapiens, MV4-11, 72 h) | pEC50 ([2]; 72 h)
CCOC(=O)N(C)c1cc(F)ccc1Oc1cncnc1N1CCC2(CCN(Cc3ccc4[nH]c(=O)[nH]c4c3)C2)C1 (centres unmarked) [Example 164, ethyl (5-fluoro-2-((4-(7-((2-oxo-2,3-dihydro-1H-benzo[d]imidazol-5-yl)methyl)-2,7-diazaspiro[4.4]nonan-2-yl)pyrimidin-5-yl)oxy)phenyl) (methyl)carbamate] | > 7.00 | 6.00 to 7.00 | –
CC(C)(O)CCc1cc(F)ccc1Oc1cncnc1N1CCC2(CCN(Cc3ccc4[nH]c(=O)[nH]c4c3)C2)C1 (centres unmarked) [Example 36, 5-((7-(5-(4-fluoro-2-(3-hydroxy-3-methylbutyl)phenoxy)pyrimidin-4-yl)-2,7-diazaspiro[4.4]nonan-2-yl)methyl)-1H-benzo[d]imidazol-2(3H)-one] | > 7.00 | 6.00 to 7.00 | –
N#Cc1ccc2c(CN3CCC4(CCN(c5ncncc5Oc5ccc(F)cc5OCC5CC5)C4)C3)c[nH]c2c1 (centres unmarked) [Example 201, 3-((7-(5-(2-(cyclopropylmethoxy)-4-fluorophenoxy)pyrimidin-4-yl)-2,7-diazaspiro[4.4]nonan-2-yl)methyl)-1H-indole-6-carbonitrile] | > 7.00 | ≤ 6.00 | –
CC(C)N(C(=O)c1cc(F)ccc1Oc1cncnc1N1CC2(CCN(C[C@H]3CC[C@H](NS(C)(=O)=O)CC3)CC2)C1)C(C)C [Example 6A, 5-fluoro-N,N-diisopropyl-2-((4-(7-(((1r,4r)-4-(methylsulfonamido)cyclohexyl)methyl)-2,7-diazaspiro[3.5]nonan-2-yl)pyrimidin-5-yl)oxy)benzamide] | > 7.00 | > 7.00 | –
Cc1cc(C#N)cc(C)c1-c1cc(F)ccc1Oc1cncnc1N1CCC2(CCN(Cc3ccc4[nH]c(=O)[nH]c4c3)C2)C1 (centres unmarked) [Example 51, 5′-fluoro-2,6-dimethyl-2′-((4-(7-((2-oxo-2,3-dihydro-1H-benzo[d]imidazol-5-yl)methyl)-2,7-diazaspiro[4.4]nonan-2-yl)pyrimidin-5-yl)oxy)-[1,1′-biphenyl]-4-carbonitrile] | > 7.00 | > 7.00 | –
CC(O)c1ccccc1-c1cc(F)ccc1Oc1cncnc1N1CCC2(CCN(Cc3ccc4[nH]c(=O)[nH]c4c3)C2)C1 (single isomer, unassigned) [Example 60D, 5-((7-(5-((5-fluoro-2′-(1-hydroxyethyl)-[1,1′-biphenyl]-2-yl)oxy)pyrimidin-4-yl)-2,7-diazaspiro[4.4]nonan-2-yl)methyl)-1H-benzo[d]imidazol-2(3H)-one] | – | – | > 7.00
N#Cc1ccc(-c2cc(F)ccc2Oc2cncnc2N2CCC3(CCC(N)(Cc4ccccc4)C3)C2)c(C2CC2)c1 (single isomer, unassigned) [Example 250A, 2′-((4-(7-amino-7-benzyl-2-azaspiro[4.4]nonan-2-yl)pyrimidin-5-yl)oxy)-2-cyclopropyl-5′-fluoro-[1,1′-biphenyl]-4-carbonitrile] | 6.00 to 7.00 | – | –
CC(C)S(=O)(=O)Nc1cc(F)ccc1Oc1cncnc1N1CC2(CCN(C[C@H]3CC[C@H](NS(C)(=O)=O)CC3)CC2)C1 [Example 74, N-(5-fluoro-2-((4-(7-(((1r,4r)-4-(methylsulfonamido)cyclohexyl)methyl)-2,7-diazaspiro[3.5]nonan-2-yl)pyrimidin-5-yl)oxy)phenyl)propane-2-sulfonamide] | > 7.00 | – | –
CC(C)N(C)C(=O)c1cc(F)ccc1Oc1cncnc1N1CCC2(CCN(Cc3cccc(N4CCOC4=O)c3)C2)C1 (centres unmarked) [Example 61, 5-fluoro-N-isopropyl-N-methyl-2-((4-(7-(3-(2-oxooxazolidin-3-yl)benzyl)-2,7-diazaspiro[4.4]nonan-2-yl)pyrimidin-5-yl)oxy)benzamide] | 6.00 to 7.00 | – | –
CC(O)c1ccccc1-c1cc(F)ccc1Oc1cncnc1N1CCC2(CCN(Cc3ccc4[nH]c(=O)[nH]c4c3)C2)C1 (single isomer, unassigned) [Example 60C, 5-((7-(5-((5-fluoro-2′-(1-hydroxyethyl)-[1,1′-biphenyl]-2-yl)oxy)pyrimidin-4-yl)-2,7-diazaspiro[4.4]nonan-2-yl)methyl)-1H-benzo[d]imidazol-2(3H)-one] | – | – | > 7.00
CC(O)c1ccccc1-c1cc(F)ccc1Oc1cncnc1N1CCC2(CCN(Cc3ccc4[nH]c(=O)[nH]c4c3)C2)C1 (single isomer, unassigned) [Example 60B, 5-((7-(5-((5-fluoro-2′-(1-hydroxyethyl)-[1,1′-biphenyl]-2-yl)oxy)pyrimidin-4-yl)-2,7-diazaspiro[4.4]nonan-2-yl)methyl)-1H-benzo[d]imidazol-2(3H)-one] | – | – | > 7.00
CC(C)c1ncncc1-c1cc(F)ccc1Oc1cncnc1N1CCC2(CC(NCc3ccc(F)cc3)CO2)C1 (centres unmarked) [Example 20, 7-(5-(4-fluoro-2-(4-isopropylpyrimidin-5-yl)phenoxy)pyrimidin-4-yl)-N-(4-fluorobenzyl)-1-oxa-7-azaspiro[4.4]nonan-3-amine] | 6.00 to 7.00 | – | –
CC1(C)C(=O)Nc2cc(CN3CCC4(C3)CN(c3ncncc3Oc3ccc(F)cc3Cl)C4)ccc21 [Example 39, 6-((2-(5-(2-chloro-4-fluorophenoxy)pyrimidin-4-yl)-2,6-diazaspiro[3.4]octan-6-yl)methyl)-3,3-dimethylindolin-2-one] | 6.00 to 7.00 | – | –
CC(C)n1nccc1-c1cc(F)ccc1Oc1cnc(Cl)nc1N1CCC2(CCN(Cc3ccc4[nH]c(=O)[nH]c4c3)C2)C1 (centres unmarked) [Example 46, 5-((7-(2-chloro-5-(4-fluoro-2-(1-isopropyl-1H-pyrazol-5-yl)phenoxy)pyrimidin-4-yl)-2,7-diazaspiro[4.4]nonan-2-yl)methyl)-1,3-dihydro-2H-benzo[d]imidazol-2-one] | 6.00 to 7.00 | – | –
CNC(=O)[C@H]1CC[C@H](CN2CCC3(CC2)CN(c2ncncc2Oc2ccc(F)cc2C(=O)N(C)C(C)C)C3)CC1 [Example 21, 5-fluoro-N-isopropyl-N-methyl-2-((4-(7-(((1r,4r)-4-(methylcarbamoyl)cyclohexyl)methyl)-2,7-diazaspiro[3.5]nonan-2-yl)pyrimidin-5-yl)oxy)benzamide] | 6.00 to 7.00 | – | –
CNC(=O)c1csc(N2CCC3(CCN(c4ncncc4Oc4ccc(F)cc4-c4ccc(C#N)cc4C4CC4)C3)C2)n1 (centres unmarked) [Example 57, 2-(7-(5-((4′-cyano-2′-cyclopropyl-5-fluoro-[1,1′-biphenyl]-2-yl)oxy)pyrimidin-4-yl)-2,7-diazaspiro[4.4]nonan-2-yl)-N-methylthiazole-4-carboxamide] | > 7.00 | – | –
CCOC(=O)c1csc(N2CCC3(CCN(c4ncncc4Oc4ccc(F)cc4-c4ccc(C#N)cc4C4CC4)C3)C2)n1 (centres unmarked) [Example 55, Ethyl 2-(7-(5-((4′-cyano-2′-cyclopropyl-5-fluoro-[1,1′-biphenyl]-2-yl)oxy)pyrimidin-4-yl)-2,7-diazaspiro[4.4]nonan-2-yl)thiazole-4-carboxylate] | ≤ 6.00 | – | –
CC(C)N(C(=O)c1cc(F)ccc1Oc1cncnc1N1CCC2(CCC(N)(Cc3ccc(C#N)cc3)C2)C1)C(C)C (single isomer, unassigned) [Example 22B, 2-((4-(7-amino-7-(4-cyanobenzyl)-2-azaspiro[4.4]nonan-2-yl)pyrimidin-5-yl)oxy)-5-fluoro-N,N-diisopropylbenzamide] | > 7.00 | – | –
